Results reported in PMC6611822, “Enhancement of laccase activity by pre-incubation with organic solvents” (Scientific Reports, 2019).
Values belong to the molecule of their own block, whether it stands above or below them.

Experiments:
AbLac = tested on: T1, AbLac; conditions: 0% acetone pre-incubation; pH 3.0 citrate-phosphate; 30 °C
T1 construct: gene lcc1

TvLac = tested on: T2, TvLac; conditions: 0% acetone pre-incubation; pH 3.0 citrate-phosphate; 30 °C
T2 construct: gene LCC1

purified protein = substrate: CCn1c(=NN=c2sc3cc(S(=O)(=O)O)ccc3n2CC)sc2cc(S(=O)(=O)O)ccc21; experiment: purified protein; format: biochemical, Cerrena; conditions: 0% acetone pre-incubation, pH 3.0 citrate-phosphate, 30 °C, 1.25–800 μM ABTS

Km (AbLac): 212 ± 19.5 µM
Km (TvLac): 29 ± 2.1 µM
Molecule: CCn1c(=NN=c2sc3cc(S(=O)(=O)O)ccc3n2CC)sc2cc(S(=O)(=O)O)ccc21 [ABTS, 2,2′-azino-bis(3-ethylbenzothiazoline-6-sulphonic acid)]

B1: DLac (Cerrena) (protein)
chain: AVGPVTDIHIVNKDIAPDGFSRPSVLAGGTFPGPLITGQKGDNFKLNVVDDLTDASMLKSTSIHWHGFFQKGTNWADGPAFVNQCPISTGNSFLYNFQVPDQAGTYWYHSHLSTQYCDGLRGAFVVYDPTDPHKALYDVDDESTVITLADWYHTLARQIVGVAIADTTLINGLGRNTNGPADAALAVINVEAGKRYRLRLVSISCDPNYVFSIDNHDFNIIEVDGVNSKPLNVDSIQIFAGQRYSAVLNANQPVGNYWVRANPNLGTTGFTGGINSAILRYKGAPVAEPTTTQTTSTKPLQEPNLRPLVSMPVPGSATPGGVDVVHNLILGFSAGKFTINGAAFTPPSVPVLLQILSGTTNAQDLLPSGSVITLPIGKTIELTLAAGVLGGPHPFHLHGHNFHVVRSAGQTTPNYVDPIVRDVVNTGGTGDNVTIRFTTDNPGPWFLHCHIDWHLEAGFAVVFAEGVNQTNAANPTPADWNNLCNIYNALADGDK
notes: source not restated here; 494 C atoms superimposed in the crystal structures
Km (purified protein): 24 ± 3.9 µM
kcat/Km (purified protein): 1.47e+09 ± 3.1e+08 M⁻¹ s⁻¹
